Experimental data reported in US4448730A, “Hydroxybenzohydroxamic acids, benzamides and esters and related compounds as ribonucleotide reductase inhibitors” (priority 1982, dated 1984).
Where two headings read alike, the source gives them in different places.

Assays:
L1210 leukemia = L1210 leukemia in mice, increase in life span (Table 2); type: in vivo; details: Mus musculus, L1210, 192 h, read-out: ILS, average percent (± standard error) increase in life span; for ILS at 500 mg/kg: 500 mg/kg daily for 8 days; for ILS at 200 mg/kg: 200 mg/kg daily for 8 days
Source text: As stated above, the compounds represented by formula I above have the ability to inhibit ribonucleotide reductase, an enzyme involved in the reductive conversion of ribonucleotides to deoxyribonucleotides. This enzymatic reaction is a rate controlling step in the biosynthetic pathway leading to DNA and cell replication. In general, the ribonucleotide reductase level is closely correlated with cellular replication.
(§1) Table 2 gives ribonucleotide reductase data for certain compounds of formula I. In the table, column 1 gives the substitution pattern in the benzene ring, column 2, the R^1 group, column 3, the ID50 (inhibitory dose in micromolar concentration which inhibits ribonucleotide reductase by 50%), column 4, the average percent (± standard error) increase in the life span (ILS) of 8 treated mice inoculated with L1210 leukemia compared with 8 control mice also inoculated with L1210. The daily dose level of the drug which was administered for 8 days is indicated in column 5. Table 3 gives the relative potency of the compounds represented by formula I above as inhibitors of ribonucleotide reductase compared to hydroxyurea whose potency was given an arbitrary value of 1.0. In table 3, column 1 gives the name of the compound and column 2 the relative inhibitory potency of each of the compounds of column 1.

ribonucleotide reductase = target: T1, ribonucleotide reductase (Rattus norvegicus, UniProt Q4KLN6); test: Inhibition of ribonucleotide reductase (conversion of CDP to dCDP), enzyme partially purified from Novikoff hepatoma; type: biochemical; details: for IC50: CDP to dCDP, 40 min at 30° C, pH 7.5, enzyme from Novikoff hepatoma, read-out: ID50 (inhibitory dose which inhibits ribonucleotide reductase by 50%); for Inhibitory Potency for ribonucleotide reductase: relative to hydroxyurea, given an arbitrary value of 1.0
T1 construct: partially purified from Novikoff hepatoma; from tissue; host or cells: Novikoff hepatoma (rat tumour), partially purified enzyme
T1 sequence (Q4KLN6 1-390): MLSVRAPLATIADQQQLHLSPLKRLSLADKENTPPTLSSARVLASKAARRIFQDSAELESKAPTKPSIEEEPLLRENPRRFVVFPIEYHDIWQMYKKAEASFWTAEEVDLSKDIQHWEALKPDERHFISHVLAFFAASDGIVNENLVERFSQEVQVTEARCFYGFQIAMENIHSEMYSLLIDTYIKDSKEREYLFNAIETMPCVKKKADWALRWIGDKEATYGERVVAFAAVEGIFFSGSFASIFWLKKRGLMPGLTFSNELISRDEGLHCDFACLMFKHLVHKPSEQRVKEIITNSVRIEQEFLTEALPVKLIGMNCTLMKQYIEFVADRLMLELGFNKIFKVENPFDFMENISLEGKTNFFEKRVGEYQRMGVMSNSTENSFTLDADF
Source text: as §1
In the above determination of ID50 's in Table 3, ribonucleotide reductase is partially purified from Novikoff hepatoma by a procedure similar to that set forth by Elford et al. J. Biol. Chem. 245, 5228 (1970). The activity of the enzyme was measured by a slightly modified assay procedure originally developed by Reichard et al. id, 236, 1150 […]. This procedure measures the conversion of CDP to dCDP. The assay mixture (0.34 ml.) contains 3 μCi of [^3 H] CDP (specific activity […]), 3.3 μmole ATP, 5.9 μmoles magnesium chloride, 8.8 μmoles Hepes buffer at pH=7.5, 15 μmoles dithiothreitol and enzyme protein between 0.4 and 1.3 mg. Incubation was provided for forty minutes at 30° C. Ion exchange chromatography employing Dowex 50 (H^+) resin is used to separate the product from the substrate. The inhibitors were dissolved in water and a mixture of water and up to 1 % ethanol or 2% dimethylsulfoxide, neither one of which inhibited the enzyme at these concentrations. Each inhibitor was tested at a minimum of three concentrations and the active compounds reassayed at least one additional time. ID50 's in μmoles were estimated from graphs summarizing results for each compound.

[1] = system: DNA synthesis in Ehrlich ascites tumor cells; details: cited from earlier work; for inhibition of / selectivity against DNA synthesis (in words) / selectivity against DNA synthesis (in words): Gale and Hynes 1968; for inhibition of / selectivity against DNA synthesis (in words): in vitro; for selectivity against DNA synthesis (in words): only after exposure of the cells for 1-2 hours
L-5563 lymphoma = test: Activity vs. L-5563 lymphoma (Table 6); details: once or twice daily for 9-10 days
Method: (§2) All compounds were administered once or twice daily for 9-10 days starting 24 hours after inoculation with the tumor.

CA-755 adenocarcinoma = test: Activity vs. CA-755 adenocarcinoma (Table 7); type: in vivo, mice; details: once or twice daily for 9-10 days
Method: as §2

L-1210 Leukemia [2] = type: in vivo, mice; details: once or twice daily for 9-10 days
Method: as §2

P388 Leukemia = test: Activity vs. P388 Leukemia (Table 8); type: in vivo, mice; details: once or twice daily for 9-10 days
Method: as §2

Lewis Lung = test: Activity vs. Lewis Lung (Table 5); type: in vivo, mice; details: once or twice daily for 9-10 days
Method: as §2

L-1210 Leukemia [3] = type: in vivo, mice
Method: In a series of studies against L-1210 leukemia, in addition to those studies set forth in Table 2 and 4, 3,4-dihydroxybenzohydroxamic acid gave the following increases in survival times at the dose levels specified. Drug was administered daily for nine days.
Similar data for 3,4,5-trihydroxybenzohydroxamic acid are as follows: […]

[4] = Biochemical Pharmacology 1971; cited from earlier work
L-1210 Leukemia [5] = test: Direct side-by-side comparison with L-1210 leukemia; type: in vivo, mice
Source text: In a direct side-by-side comparison with L-1210 leukemia, the following results were obtained.

L-1210 Leukemia [6] = type: in vivo, mice; remark: listed apart in the source
Source text: The above data clearly show the enhanced anti-tumor activity of trihydroxybenzohydroxamic acid where the hydroxy groups are vicinal but no hydroxyl is ortho. Similar data are available for the vicinal dihydroxybenzohydroxamic acids with and without an ortho-hydroxy substituent in an L-1210 leukemic test in mice as follows: […]

CNC(=O)c1cc(O)c(O)c(O)c1 [3,4,5 NHCH3]
ILS at 500 mg/kg (L1210 leukemia): 60 ± 29% | IC50 (ribonucleotide reductase): 25 µM

NC(=O)c1ccc(O)c(O)c1 [3,4-dihydroxybenzamide]
ILS at 1200 mg/kg (L1210 leukemia; 1200 mg/kg daily for 8 days): 35 ± 11% | IC50 (ribonucleotide reductase): 50 µM | Inhibitory Potency for ribonucleotide reductase (ribonucleotide reductase): 10

O=C(NO)c1cc(O)ccc1O [2,5-dihydroxybenzohydroxamic acid]
ILS at 300 mg/kg (L1210 leukemia; 300 mg/kg daily for 8 days): 30 ± 14% | IC50 (ribonucleotide reductase): 200 µM | Inhibitory Potency for ribonucleotide reductase (ribonucleotide reductase): 2.5

NC(=O)c1ccccc1 [benzamide]
inhibition of / selectivity against DNA synthesis (in words) [1]: totally inactive

NC(=O)c1cc(O)c(O)c(O)c1 [3,4,5-trihydroxybenzamide]
toxic (in column % inhibition) (L-5563 lymphoma; 200 mg/kg): toxic | % inhibition (CA-755 adenocarcinoma; 200 mg/kg): 38% | % increase in survival time (L-1210 Leukemia [2]; 150 mg/kg): 50% | % increase in survival time (L-1210 Leukemia [2]; 175 mg/kg): 55% | % increase in survival time (L-1210 Leukemia [2]; 225 mg/kg): 10% | % Prolongation (P388 Leukemia; 175 mg/kg): 43% | % Prolongation (P388 Leukemia; 200 mg/kg): 40% | % Prolongation (P388 Leukemia; 225 mg/kg): 55% | ILS at 250 mg/kg (L1210 leukemia; 250 mg/kg daily for 8 days): 42 ± 5% | IC50 (ribonucleotide reductase): 10 µM | Inhibitory Potency for ribonucleotide reductase (ribonucleotide reductase): 50 | % tumor inhibition (Lewis Lung; 200 mg/kg): 21%

O=C(NO)c1ccc(O)c(O)c1O [2,3,4-trihydroxybenzohydroxamic acid]
toxic (in column % inhibition) (L-5563 lymphoma; 25-50 mg/kg): toxic | % increase in survival (L-1210 Leukemia [3]; 25 mg/kg daily for nine days): 10% | % increase in survival (L-1210 Leukemia [3]; 50 mg/kg daily for nine days): 8% | % increase in survival (L-1210 Leukemia [3]; 100 mg/kg daily for nine days): 16% | % inhibition (CA-755 adenocarcinoma; 25-50 mg/kg): 12-18% | % increase in survival time (L-1210 Leukemia [2]; 25-50 mg/kg): 17-21% | ILS at 125 mg/kg (L1210 leukemia; 125 mg/kg daily for 8 days): 30 ± 7% | IC50 (ribonucleotide reductase): 3.5 µM | Inhibitory Potency for ribonucleotide reductase (ribonucleotide reductase): 140 | % tumor inhibition (Lewis Lung; 25-50 mg/kg): 13-14%

Nc1ccc(C(=O)NO)c(O)c1 [2-hydroxy-4-aminobenzoyl compound]
antimitogenic activity (in words) [4]: inactive

Nc1cc(N)cc(C(=O)NO)c1 [3,5-Diaminobenzohydroxamic acid]
selectivity against DNA synthesis (in words) [1]: relative selectivity against DNA synthesis

O=C(NO)c1c(O)cccc1O [2,6-dihydroxybenzohydroxamic acid]
ILS at 88 mg/kg (L1210 leukemia; 88 mg/kg daily for 8 days): 23 ± 11% | IC50 (ribonucleotide reductase): 100 µM | Inhibitory Potency for ribonucleotide reductase (ribonucleotide reductase): 5.0

CC(C)c1cc(C(=O)NO)c(O)c(C(C)C)c1 [3,5-diisopropylsalicylhydroxamic acid]
inhibition of DNA synthesis, rank in words ([1]; Gale, Hynes and Smith 1970): most active compound

Nc1ccc(C(=O)NO)cc1 [4-aminobenzohydroxamic acid]
antimitogenic activity (in words) [4]: inactive | selectivity against DNA synthesis (in words) [1]: relative selectivity against DNA synthesis

O=C(Oc1ccccc1)c1cc(O)c(O)c(O)c1 [phenyl 3,4,5-trihydroxybenzoate]
% inhibition (L-5563 lymphoma; 200 mg/kg): 19% | % inhibition (CA-755 adenocarcinoma; 100 mg/kg): 27% | % inhibition (CA-755 adenocarcinoma; 200 mg/kg): 11% | % increase in survival time (L-1210 Leukemia [2]; 200 mg/kg): 56% | Inhibitory Potency for ribonucleotide reductase (ribonucleotide reductase): 33 | % tumor inhibition (Lewis Lung; 50 mg/kg): 2% | % tumor inhibition (Lewis Lung; 200 mg/kg): 14%

O=C(NO)c1ccc(O)cc1O [2,4-dihydroxybenzohydroxamic acid]
ILS at 500 mg/kg (L1210 leukemia): 42 ± 7% | IC50 (ribonucleotide reductase): 250 µM | Inhibitory Potency for ribonucleotide reductase (ribonucleotide reductase): 2.0

NC(=O)NO [hydroxyurea, reference compound]
% inhibition (CA-755 adenocarcinoma; 71 mg/kg): 27% | % inhibition (CA-755 adenocarcinoma; 200 mg/kg): 26% | % increase in survival time (L-1210 Leukemia [2]; 30 mg/kg): 27% | % increase in survival time (L-1210 Leukemia [2]; 40 mg/kg): 27% | % increase in survival time (L-1210 Leukemia [2]; 60 mg/kg): 92% | % increase in survival time (L-1210 Leukemia [2]; 71 mg/kg): 58% | % tumor inhibition (Lewis Lung; 71 mg/kg): 27% | % tumor inhibition (Lewis Lung; 400 mg/kg): 44%

NC(=O)c1ccc(O)c(O)c1O [2,3,4-trihydroxybenzamide]
ILS at 200 mg/kg (L1210 leukemia): 48 ± 7% | IC50 (ribonucleotide reductase): 5 µM | Inhibitory Potency for ribonucleotide reductase (ribonucleotide reductase): 100

O=C(Cc1ccc(O)c(O)c1)NO [3,4-dihydroxyphenylacetohydroxamic acid]
% increase in survival time (L-1210 Leukemia [2]; 606 mg/kg): 57%

O=C(NO)c1cccc(O)c1O [2,3-dihydroxybenzohydroxamic acid]
% increase in survival time (L-1210 Leukemia [5]; 125 mg/kg): 0% | % increase in survival time (L-1210 Leukemia [5]; 250 mg/kg): 16% | % increase in survival time (L-1210 Leukemia [6]; 300 mg/kg): about 0% | % increase in survival time (L-1210 Leukemia [6]; 450 mg/kg): about 0% | antimitogenic activity (in words) [4]: most active compounds tested | ILS at 200 mg/kg (L1210 leukemia): 36 ± 11% | inhibition of / selectivity against DNA synthesis (in words) [1]: marked selectivity against DNA synthesis with a greater inhibition than that produced by salicylhydroxamic acid | IC50 (ribonucleotide reductase): 8 µM | Inhibitory Potency for ribonucleotide reductase (ribonucleotide reductase): 63

O=C(NO)c1cc(O)cc(O)c1 [3,5-dihydroxybenzohydroxamic acid]
ILS at 1000 mg/kg (L1210 leukemia; 1000 mg/kg daily for 8 days): 52 ± 22% | IC50 (ribonucleotide reductase): 400 µM | Inhibitory Potency for ribonucleotide reductase (ribonucleotide reductase): 1.2
